Results on 18 substances are retold here after patent US9850281B2, “Cladosporium peptides” (Circassia Limited, priority 2012, dated 2017).

Assay [1] deals with Peripheral blood mononuclear cells (PBMCs). As to the kind of experiment: Cytokine release assay (multiplex bead assay IL-10, IL-13, IFN-g) on PBMCs of mould allergic subjects. Type of assay: cell-based, human. The note with it: 50 mould allergic subjects; for cytokine response in the population (in words): summary of Tables 8-10; for % responders: cytokine release greater than 50 pg/ml in one or more of IL-13, IL-10 and IFN-g, polypeptide 100 μg/ml, 5 days. As to the method: Polypeptides for use in this assay were manufactured at small scale (approximately 10 mg batch size, non-GMP). […] Polypeptides were added to wells in a volume of 100 μl containing polypeptides at a concentration of 200 μg/ml, such that subsequent addition of 100 μl of cells would create a final assay concentration of 100 μg/ml.
Peripheral blood mononuclear cells (PBMCs) were isolated from heparinised blood by Ficoll density gradient centrifugation. A 100 μl aliquot of a 5×10^6 cell/ml PBMC suspension was then added to each well and the plates placed in a humidified 5% CO2 incubator at 37° C. for 5 days. Following stimulation, culture supernatants (100 μl) were harvested for testing by multiplex bead assay.
Multiplex cytokine bead assays (IL-10, IL-13, Interferon gamma (IFN-g)) were performed on thawed culture supernatants according to the manufacturer's instructions. Single measurements were performed for each culture supernatant sample. After completion of the multiplex assay, individual cytokine levels were determined by interpolation from the standard curve generated in the assay. A positive result was taken as a cytokine release of greater than 50 pg/ml in one or more of the IL-13, IL-10 and IFN-g assays. The number of responders out of 50 mould allergic subjects tested was calculated for each polypeptide for the three cytokines.

Assay [2] has the same test system. Described as above. The format is cell-based, human. The note with it: 50 mould allergic subjects, polypeptide 100 μg/ml, 5 days.

Where no end group is shown, it is not given here. [ ]: non-standard residue; d: D form. Nle = CCCC[C@H](N)C(=O)O

For AEVYQKLKALAKKTYGQ [Alt13A], in assay [1], the “cytokine response in the population (in words)” value (“cytokine response” for short) is on record as “top performing” and the “% responders” value came to 86%.

Turning to AEVYQKLKSLTKK [Cla16], in assay [1], the “cytokine response” value is reported as “showed responses in the population” and the “% responders” value is recorded as 36%. Besides, in assay [2], the “% responders (IFN-g release greater than 100 pg/ml)” value turned out to be 16%.

As for ANYTQTKTVSIRL [Cla29], in assay [1], the “cytokine response” value was “showed responses in the population” and the “% responders” value worked out at 48%. Besides, in assay [2], the “% responders (IFN-g release greater than 100 pg/ml)” value worked out at 28%.

As for “GGYKAAVRPT-Nle-LE (GGYKAAVRPT[Nle]LE) [Cla35A]”, in assay [1], the “cytokine response” value is “increased response compared to the polypeptide having the sequence of Cla35” and the “% responders” value turned out to be 48%.

With GGYKAAVRPTMLE [Cla35], in assay [1], the “cytokine response” value is reported as “showed responses in the population” and the “% responders” value turned out to be 34%. For the same substance, the “% responders (IFN-g release greater than 100 pg/ml)” value in assay [2] came out at 28%.

In the case of GHHFKERGTGSLVIT [Cla26], in assay [1], the “cytokine response” value is “showed responses in the population” and the “% responders” value is given as 44%. Besides, the “% responders (IFN-g release greater than 100 pg/ml)” value in assay [2] is given as 28%.

For the substance GLHFRERKTGSLVIT [Alt21], in assay [1], the “% responders” value is recorded as 38%.

For the substance “GWGV-Nle-VSHRSGET (GWGV[Nle]VSHRSGET) [Alt14A]”, in assay [1], the “cytokine response” value is on record as “top performing” and the “% responders” value is 56%.

For GWGVMVSHRSGET [Alt14], in assay [1], the “cytokine response” value was “top performing” and the “% responders” value is reported as 44%.

As for “GYTGKIKIA-Nle-DVASSE (GYTGKIKIA[Nle]DVASSE) [Alt15A]”, in assay [1], the “cytokine response” value was “top performing” and the “% responders” value stood at 42%.

On to GYTGKIKIAMDVASSE [Alt15], for which, in assay [1], the “cytokine response” value was “top performing” and the “% responders” value worked out at 56%.

As to “KLWHS-Nle-IP-Nle-GRDAK (KLWHS[Nle]IP[Nle]GRDAK) [Alt24A]”, the “% responders” value in assay [1] is 40%.

Take “KLWHSMIP-Nle-GRDAK (KLWHSMIP[Nle]GRDAK) [Alt24C]”: in assay [1], the “% responders” value is on record as 36%.

As for KLWHSMIPMGRDAK [Alt24], in assay [1], the “% responders” value worked out at 34%.

For LAITYNSRAEGAEK [Alt20], the “% responders” value in assay [1] is 38%.

Take NEWRDFARVNSISP [Alt23]: the “% responders” value in assay [1] came to 40%.

As to VAITYASRAQGAEK [Cla25A], in assay [1], the “cytokine response” value is reported as “showed responses in the population” and the “% responders” value is reported as 44%. Moreover, the “% responders (IFN-g release greater than 100 pg/ml)” value in assay [2] is recorded as 22%.

Turning to WSWKIGPAIATGNT [Alt28], in assay [1], the “cytokine response” value was “top performing” and the “% responders” value came to 52%.
